Assay results reported in publication PMC4188576 (PLoS ONE, 2014).

Columns and labels:
Pdr5p = molecular target: T1, Pdr5p (Saccharomyces cerevisiae, UniProt P33302); assay: ATPase (Pi release) assay on Pdr5p-overexpressing plasma membranes, oligomycin-sensitive activity; format: biochemical
T1 construct: gene PDR5; plasma membranes containing the overexpressed Pdr5p (strain AD124567)

Na,K-ATPase α1 isoform [1] = molecular target: T2, Na,K-ATPase α1 isoform (Mus musculus, UniProt Q8VDN2); assay: Na,K-ATPase activity of mouse kidney membranes, dose-response; format: biochemical
T2 construct: gene Atp1a1; native mouse kidney membrane preparation, primarily α1 isoform

Na,K-ATPase α1 isoform [2] = molecular target: T3, Na,K-ATPase α1 isoform (Homo sapiens, UniProt P05023); assay: competition of 3H-ouabain radioligand binding on HeLa cells
T3 construct: gene ATP1A1; endogenous enzyme on HeLa cell monolayers

T1 sequence (P33302 whole entry): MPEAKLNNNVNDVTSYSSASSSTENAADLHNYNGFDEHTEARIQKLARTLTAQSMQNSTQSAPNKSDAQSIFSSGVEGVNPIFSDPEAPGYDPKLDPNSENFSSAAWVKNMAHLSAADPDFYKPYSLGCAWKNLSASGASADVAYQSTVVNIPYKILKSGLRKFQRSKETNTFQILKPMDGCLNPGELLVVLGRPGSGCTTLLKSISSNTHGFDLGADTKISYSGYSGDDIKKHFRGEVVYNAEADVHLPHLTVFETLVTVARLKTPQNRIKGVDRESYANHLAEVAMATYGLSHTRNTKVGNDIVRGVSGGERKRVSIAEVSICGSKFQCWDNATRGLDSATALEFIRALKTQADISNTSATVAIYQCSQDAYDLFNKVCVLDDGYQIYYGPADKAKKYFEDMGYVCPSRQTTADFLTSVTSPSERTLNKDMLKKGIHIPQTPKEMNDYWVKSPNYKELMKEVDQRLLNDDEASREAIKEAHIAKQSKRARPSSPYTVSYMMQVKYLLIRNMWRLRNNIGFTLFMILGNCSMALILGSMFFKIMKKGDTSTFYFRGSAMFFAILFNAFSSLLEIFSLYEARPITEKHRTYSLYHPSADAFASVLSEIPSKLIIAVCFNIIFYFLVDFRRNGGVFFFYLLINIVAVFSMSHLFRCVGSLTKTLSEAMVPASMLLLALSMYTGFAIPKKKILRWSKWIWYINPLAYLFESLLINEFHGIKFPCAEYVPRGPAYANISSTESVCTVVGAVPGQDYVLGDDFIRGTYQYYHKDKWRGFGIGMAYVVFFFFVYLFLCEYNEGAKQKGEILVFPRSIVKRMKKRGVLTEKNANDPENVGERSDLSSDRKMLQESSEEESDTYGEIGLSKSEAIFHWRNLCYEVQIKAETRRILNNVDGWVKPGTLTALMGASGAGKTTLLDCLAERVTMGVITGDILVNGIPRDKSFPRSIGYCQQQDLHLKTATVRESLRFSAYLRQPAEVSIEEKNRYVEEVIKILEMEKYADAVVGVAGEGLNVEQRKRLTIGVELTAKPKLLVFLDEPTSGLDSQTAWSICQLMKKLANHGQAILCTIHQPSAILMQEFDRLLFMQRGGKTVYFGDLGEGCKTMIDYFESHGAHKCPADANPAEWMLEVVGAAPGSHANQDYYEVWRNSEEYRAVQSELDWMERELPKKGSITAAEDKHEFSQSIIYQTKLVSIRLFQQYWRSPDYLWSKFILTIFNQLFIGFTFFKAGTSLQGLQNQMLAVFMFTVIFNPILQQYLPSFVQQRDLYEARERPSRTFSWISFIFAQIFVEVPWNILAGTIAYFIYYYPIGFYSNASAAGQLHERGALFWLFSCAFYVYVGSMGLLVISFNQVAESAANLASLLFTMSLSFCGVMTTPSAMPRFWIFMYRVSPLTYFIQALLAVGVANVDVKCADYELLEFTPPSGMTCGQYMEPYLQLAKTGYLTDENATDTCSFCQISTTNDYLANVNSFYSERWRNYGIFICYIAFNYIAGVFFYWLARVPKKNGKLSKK

C[C@H]1O[C@@H](O[C@H]2[C@@H](O)C[C@H](O[C@H]3[C@@H](O)C[C@H](O[C@H]4CC[C@@]5(C)[C@H](CC[C@@H]6[C@@H]5C[C@@H](O)[C@]5(C)[C@@H](C7=CC(=O)O/C7=C\c7ccccc7)CC[C@]65O)C4)O[C@@H]3C)O[C@@H]2C)C[C@H](O)[C@@H]1O [21-BD, 21-benzylidene digoxin]
IC50 (Pdr5p): 1250 ± 360 nM
Na,K-ATPase activity of mouse kidney membranes, dose-response (Na,K-ATPase α1 isoform [1]): Similarly, 21-BD inhibited the mouse kidney Na,K-ATPase with similar kinetics
competition of 3H-ouabain radioligand binding on HeLa cells (Na,K-ATPase α1 isoform [2]): 21-BD significantly competed with ouabain binding at concentrations in the µM range
